This note sets out measurements from patent US20070112068A1, “Nitrile compound and its use in pest control” (priority 2003, published 2007).

Each structure is given as a SMILES string.

What all share (type): in vivo
The subject of assay [1] is Blattalla germanica. Briefly: Experimental Example 3: treated filter paper with sucrose bait, German cockroach. Conditions: 500 ppm, 0.7 ml on filter paper; two male imagoes; after 6 days. The procedure:
A filter paper having a diameter of 5.5 cm was spread on the bottom of a polyethylene cup having a diameter of 5.5 cm and 0.7 ml of the experimental pesticidal solution was added dropwise onto the filter paper. As a bait 30 mg of sucrose was uniformly placed on the filter paper. Into the polyethylene cup, two male Blattalla germanica imagoes were released and the cup was sealed with a lid. After 6 days, the number of surviving Blattalla germanica was examined and the death rate of the pest was calculated.

Assay [2] deals with Blattella germanica. Briefly: Experimental Example 13: direct oil spray in CSMA chamber, Blattella germanica. Conditions: 1.5 ml of 0.025% (w/v) oil sprayed directly; after 3 days. The procedure:
7.5 mg of the present compound (31) was dissolved in 30 mL of a mixture of 90 parts by weight of Isopar M (isoparaffin, the registered trade name of Exxon Chemical) and 10 parts by weight of dichloromethane to prepare a 0.025% (w/v) oil. A plastic container (diameter: 9.5 cm, height: 4 cm, bottom part of 16 mesh wire) containing 10 imagoes (5 males and 5 females) of Blattella germanica was placed on the bottom of a CSMA chamber (width: 46 cm, depth: 46 cm, height: 70 cm).
1.5 ml of the oil was directly sprayed on test cockroaches from the upper side of the CSMA chamber. After 30 seconds from spraying, the container containing cockroaches was removed. All cockroaches were transferred to another clean plastic container (200 mL) and left together with feed and water at 25° C. After 3 days, the number of surviving Blattella germanica was examined and the death rate of the pest was calculated.

Assay [3] relates to Blattella germanica. Briefly: Experimental Example 15: treated filter paper in paper box, Blattella germanica. Conditions: 0.1 ml of 2.5% (w/v) acetone solution on filter paper in paper box; after 7 days. The procedure: 2.5% (w/v) solutions of the present compounds (23), (24) and (31) in acetone were prepared. 0.1 ml of the solution was added dropwise onto a filter paper with 2 cm×2 cm and then air-dried. This filter paper was attached to the center of the inside bottom of a paper box having 10 cm (width)×2 cm (height)×7 cm (depth) with a two-sided tape. One hole of 5 mm in width and 2 cm in height was made through one side of this box. This box was placed in a plastic vat with 25 cm×20 cm×8 cm in height and therein 10 females and 10 males of Blattella germanica were released. The inside wall of the plastic vat used in this experiment was coated with talc for preventing the escape of cockroaches. The plastic vat contained feed and water and left at 25° C. After 7 days, Blattella germanica was observed and the death rate of the pest was calculated. This experiment was repeated two times.

In assay [4] the test system is Periplaneta americana. Briefly: Experimental Example 17: treated filter paper in paper box, Periplaneta americana. As to conditions: 0.1 ml of 5% (w/v) acetone solution on filter paper in paper box; after 7 days. The procedure: A 5% (w/v) solution of the present compound (31) in acetone was prepared. 0.1 ml of the solution was added dropwise onto a filter paper with 2 cm×2 cm and then air-dried. This filter paper was attached to the center of the inside bottom of a paper box having 10 cm (width)×2 cm (height)×7 cm (depth) with a two-sided tape. One hole of 2 mm in width and 2 cm in height was made through one side of this box. This box was placed in a plastic vat with 25 cm×20 cm×8 cm in height and therein 3 females and 3 males of Periplaneta americana were released. The inside wall of the plastic vat used in this experiment was coated with talc for preventing the escape of cockroaches. The plastic vat contained feed and water and left at 25° C. After 7 days, Periplaneta americana was observed and the death rate of the pest was calculated. This experiment was repeated two times.

Assay [5] has as its system Culex pipiens pallens. Briefly: Experimental Example 27: fan-ventilated knitted fabric preparation, Culex pipiens pallens. As to conditions: preparation of Formulation Example 10 ventilated by electric fan; 20 minutes exposure, after 24 hours. As for the experimental part: A preparation of the present compound (31) prepared according to Formulation Example 10 is set at the upper part of an electric fun shown in FIG. 5 and then placed on the center of the floor of a chamber having 70 cm (width)×70 cm (depth)×70 cm (height). After the electric fan is operated to initiate to ventilate the preparation, about 20 female imagoes of Culex pipiens pallens are released in the chamber. After 20 minutes, all test pests are collected, placed in a plastic cup together with absorbent cotton impregnated with 5% sugar water, and left at 25° C.

With `N#CC(C#N)(CCC(F)(F)F)CC(F)(F)C(F)(F)C(F)(F)C(F)F` [(31)], the “death rate of the pest” value in assay [1], in assay [2], in assay [3] and in assay [4] was 100% each time. Also, the pesticidal effect entry in assay [5] was “pesticidal effect on Culex pipiens pallens is confirmed”.
